Entries after “also recorded” stand apart in the source; their conditions may differ. Blank lines part the entries; values can stand above or below the compound they belong to.
Assays:
wheat plants = assay: Foliar administration and thermal imaging of leaf temperature, wheat; assay type: in vivo, Triticum aestivum; conditions: 100 μM, 24 h after administration
Protocol: (§1) Thermal imaging was carried out as described ([Yang et al., 2016]). An assessment of the efficacy of ABA and CCPs was conducted by using 35-day-old Arabidopsis and 30-day-old wheat plants. Stock solutions (10 mM) of CCPs and ABA dissolved in dimethyl sulfoxide (DMSO) were diluted to the respective ligand concentrations (10, 30, 100 µM) in water containing 0.01% (v/v) Tween 20. Aqueous Tween 20 solutions supplemented with 0.1%, 0.3%, and 1% DMSO served for mock treatments. The solutions were sprayed onto the leaf surface until the run-off of droplets. One day after application (unless otherwise indicated), thermal imaging was conducted using the InfraTec instrument (IR-TCM 384, InfraTec, Dresden, Germany). The leaf temperature of Arabidopsis was determined as the average temperature of all leaves. The leaf temperature of wheat was determined as described ([Yang et al., 2019]).

RCAR11-ABI2 = tested on: T1, RCAR11-ABI2; assay: In vitro phosphatase assay, ABI2 with RCAR11; assay type: biochemical, Arabidopsis thaliana; conditions: esterase-treated
T1 construct: 6xHis (N); made in house; host or cells: Escherichia coli BL21
Protocol: Expression, purification, and analysis of RCAR and PP2C proteins were performed essentially as described ([Ruschhaupt et al., 2019]). Briefly, the ABA receptors RCAR1, RACR8, and RCAR11 were expressed with an aminoterminal histidine tag using the pSEVA431_LII_6xHIS::RCAR1/RCAR8/RCAR11. ABA coreceptors were expressed as histidine-tagged fusions with the maltose-binding protein using the pSEVA431_LII_6xHIS::MBP::ABI2/HAB1. All constructs were transformed and expressed in Escherichia coli strain BL21 and purified to homogeneity according to supplier’s instruction (GE Healthcare, Chicago, USA). The receptor assay was performed with 100 nM PP2C and a two-fold molar excess of RCAR. Values are means ± SD of three replicates. […] The maximum inhibition was set to 100% in the figures. The phosphatase activity was measured using 4-methylumbelliferyl-phosphate as a substrate ([Meinhard and Grill, 2001]). The increase in fluorescence was recorded over 25 min with excitation and emission wavelengths at 360 and 460 nm, respectively, using a Synergy 2 plate reader (Bio-Tec, Winooski, USA).

Arabidopsis plants = assay: Foliar administration and thermal imaging of leaf temperature (transpiration), Arabidopsis; assay type: in vivo, Arabidopsis thaliana; conditions: for Leaf temperature increase, activity compared to ABA: 10, 30, 100 µM, one day after application
Protocol: as §1

[1] = tested on: Arabidopsis aba2-1 protoplasts; assay: Transient ABA response in Arabidopsis protoplasts (pRD29B::LUC, RCAR11 and ABI2 effectors); assay type: cell-based, Arabidopsis thaliana
Protocol: Preparation of Arabidopsis protoplasts, transfection of the effector DNA, and analysis of LUC activity were performed as described ([Tischer et al., 2017]). In essence, 10^5 mesophyll protoplasts from leaves of the ABA deficient mutant aba2-1 ([Schwartz et al., 1997]) were transfected with 4 µg DNA of the pRD29B::LUC construct as an ABA-responsive reporter and 3 µg of p35S::GUS (β-glucuronidase reporter gene) expression cassette as an internal control for normalization. In addition, 3 µg p35S::RCAR11 or the empty vector with the same expression cassette were co-expressed with 0.1 µg p35S::ABI2 effector constructs ([Tischer et al., 2017]), and the ligand-dependent induction of ABA-responsive reporter expression were assessed after incubation at 22°C. The expression of LUC and GUS was determined 18 h after transfection and ligand administration.

LC-MS log p = assay type: physicochemical
Protocol: Cyano cyclopropyl ABA analogs were provided by Bayer (Division Crop Science, Höchst, Germany). All CCPs, except CCP8, were synthesized as described ([Frackenpohl et al., 2018]). For the synthesis of CCP8, ethyl-(2Z)-6-(1-cyanocyclopropyl)-3-ethyl-6-hydroxy-7-methyloct-2-en-4-ynoate, copper (I) iodide (7 mg, […]) and bis (triphenylphosphine) palladium (II) chloride (19 mg, 0.03 mmol) were charged under argon, and toluene (3 mL) together with ethyl (2Z)-3-iodopent-2-enoate (233 mg, 0.9 mmol; column chromatography purification of a crude product as described by [Frackenpohl et al., 2018]) were added at room temperature. After stirring for 10 min, 1-(3-hydroxy-4-methylpent-1-yn-3-yl) cyclopropanecarbonitrile (150 mg, 0.9 mmol; synthesis as describe by [Frackenpohl et al., 2018]) dissolved in toluene (3 mL) and diisopropylamine (0.4 mL, 2.8 mmol) were added. The resulting reaction mixture was stirred for 3 h prior to addition of water. The aqueous phase was extracted repeatedly with dichloromethane. The combined organic phases were dried over magnesium sulphate, filtered, and concentrated under reduced pressure. […]

[2] = biological target: ABI2 (Arabidopsis thaliana) (UniProt O04719)
Sequence of ABI2 (Arabidopsis thaliana) (O04719 whole entry): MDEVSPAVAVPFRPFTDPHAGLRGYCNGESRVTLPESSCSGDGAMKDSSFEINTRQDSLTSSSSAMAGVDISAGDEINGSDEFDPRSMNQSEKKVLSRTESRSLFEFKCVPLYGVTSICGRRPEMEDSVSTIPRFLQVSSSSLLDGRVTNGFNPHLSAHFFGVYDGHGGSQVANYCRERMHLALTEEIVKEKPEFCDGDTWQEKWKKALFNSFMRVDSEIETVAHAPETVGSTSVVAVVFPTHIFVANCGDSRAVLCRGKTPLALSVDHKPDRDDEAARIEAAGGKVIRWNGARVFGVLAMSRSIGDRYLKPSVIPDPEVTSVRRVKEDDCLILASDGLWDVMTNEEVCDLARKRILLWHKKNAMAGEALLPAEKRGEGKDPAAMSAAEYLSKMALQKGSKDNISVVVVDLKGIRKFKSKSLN

Activity with RCAR11-ABI2 receptor complex compared to ABA (RCAR11-ABI2): slightly lower activity than ABA
Compound: COC(=O)/C=C(\C=C\C(O)(C(C)C)C1(C#N)CC1)C(F)(F)F (stereo not shown) [CCP4]
Leaf temperature increase, activity compared to ABA (wheat plants): somewhat less active
Leaf temperature increase, activity compared to ABA (Arabidopsis plants): moderately higher activity compared to ABA

Activity with RCAR11-ABI2 receptor complex compared to ABA (RCAR11-ABI2): slightly lower activity than ABA
Concentration for half-maximum inhibition of ABI2 relative to ABA (RCAR11-ABI2; approximately 60% conversion into free acid): twofold
Compound: COC(=O)/C=C(\C=C\C(O)(C1CC1)C1(C#N)CC1)C(F)(F)F (stereo not shown) [CCP5]
Leaf temperature increase, activity compared to ABA (wheat plants): somewhat less active
Induction of ABA signaling compared to ABA ([1]; aba2-1 protoplasts, 18 h ligand exposure): most active compound
Higher induction rates than ABA ([1]; at different ligand concentrations): up to 60%
Potency in reducing transpiration compared to ABA (Arabidopsis plants; 10 µM): more potent than 100 µM ABA
Leaf temperature increase, activity compared to ABA (Arabidopsis plants): more efficacious than ABA and even exceeding the efficacy of CCP1 to CCP3
Duration of persistent response (Arabidopsis plants; 10 and 30 µM ligand treatment): 10 days
Potency relative to ABA (Arabidopsis plants; 10 and 30 µM ligand vs 100 µM ABA): more than tenfold; also recorded: more than ten times
Duration of effect relative to ABA (Arabidopsis plants; 10 and 30 µM ligand vs ABA): approximately three times
Efficiency in minimizing transpiration compared to ABA (Arabidopsis plants; foliar application): by an order of magnitude more efficient than ABA
Activity and persistence of minimized transpiration compared to ABA (Arabidopsis plants; single application 100 µM, recorded for 19 days): more active and persistent than ABA

Activity with RCAR11-ABI2 receptor complex compared to ABA (RCAR11-ABI2): slightly lower activity than ABA
Compound: COC(=O)/C=C(\C=C\C(O)(C1CCCC1)C1(C#N)CC1)C(F)(F)F (stereo not shown) [CCP6]
Leaf temperature increase, activity compared to ABA (Arabidopsis plants): somewhat lower efficacy

chromatographic logP (LC-MS log p): 1.39
Compound: CCOC(=O)/C=C(\C#CC(O)(C(C)C)C1(C#N)CC1)CC (stereo not shown) [CCP8, ethyl-(2Z)-6-(1-cyanocyclopropyl)-3-ethyl-6-hydroxy-7-methyloct-2-en-4-ynoate]

induction of the ABRE-LUC reporter in yeast expressing RCAR11, ABI2, OST1 and ABF2, with 30 µM ABA or CCP1 against mock-treated cells (dose series with ABA, CCP1, CCP2 in Figure 2A) [2]: 8 fold
Compound: RCAR11/PYR1 (from UniProt O49686 1-191) (receptor)

— paper PMC9894685, “Abscisic acid agonists suitable for optimizing plant water use” (Frontiers in Plant Science, 2023)
